Where two headings read alike, the source gives them in different places.
Legend:
hA1 adenosine receptor = molecular target: T1, hA1 adenosine receptor (Homo sapiens, UniProt P30542); test: Binding of [3H]PIA to A1 (human); settings: Cheng-Prusoff
T1 sequence (P30542 1-326): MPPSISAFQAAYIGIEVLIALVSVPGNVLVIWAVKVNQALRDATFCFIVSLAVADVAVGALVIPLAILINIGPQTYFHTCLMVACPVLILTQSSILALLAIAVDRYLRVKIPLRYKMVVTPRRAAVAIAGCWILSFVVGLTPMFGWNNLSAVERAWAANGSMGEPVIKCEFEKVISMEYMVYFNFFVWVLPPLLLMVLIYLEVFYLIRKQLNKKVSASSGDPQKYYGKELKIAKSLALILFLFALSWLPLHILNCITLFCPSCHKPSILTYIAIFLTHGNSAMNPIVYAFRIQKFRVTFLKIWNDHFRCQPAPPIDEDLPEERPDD
Description: (§3) The binding of [^3H]PIA ((R)-N^6-(phenylisopropyl)adenosine) to A1 and the binding of [^3H]CGS21680(2-[[[4-(2–Carboxyethyl-phenyl)ethylamino]-5′-N-thylcarbamoyl)adenosine) to A2a were measured as described below. Adenosine deaminase was added while the membrane was cultured at 30° C. for 30 min with the radioactive ligand. The IC50 values of each compound were determined for at least 6 different concentrations.

rA1 adenosine receptor = molecular target: T2, rA1 adenosine receptor (Rattus norvegicus, UniProt P25099); test: Binding of [3H]PIA to A1 (rat); settings: Cheng-Prusoff
T2 construct: Striatal and forebrain tissues from Wistar rats were homogenized in ice-cold 50 mM Tris.HCl buffer; from tissue; host or cells: Wistar rat brain membranes (forebrain for A1 is my own knowledge)
T2 sequence (P25099 1-326): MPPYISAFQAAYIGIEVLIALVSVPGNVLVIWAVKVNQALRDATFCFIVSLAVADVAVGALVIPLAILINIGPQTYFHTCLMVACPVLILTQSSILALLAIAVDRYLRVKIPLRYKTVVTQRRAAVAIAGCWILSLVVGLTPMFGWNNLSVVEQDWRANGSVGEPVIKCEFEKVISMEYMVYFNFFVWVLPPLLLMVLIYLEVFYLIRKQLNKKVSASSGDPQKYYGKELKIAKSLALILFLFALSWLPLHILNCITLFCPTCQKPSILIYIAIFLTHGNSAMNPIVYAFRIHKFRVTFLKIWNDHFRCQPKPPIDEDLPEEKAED
Description: as §3
(§4) Striatal and forebrain tissues from Wistar rats were homogenized in ice-cold 50 mM Tris.HCl buffer, pH 7.4, using an electric homogenizer. The homogenate was centrifuged at 20,000 g for 10 min at 4° C., and the pellet was washed in fresh buffer. The final pellet was stored at −80° C. until the binding experiments.

hA2a adenosine receptor = hA2a adenosine receptor (Homo sapiens, UniProt P29274); test: Binding of [3H]CGS21680 to A2a (human); settings: for Ki: [3H]CGS21680, Cheng-Prusoff
Description: as §3

hA3 adenosine receptor = molecular target: T3, hA3 adenosine receptor (Homo sapiens, UniProt P0DMS8); test: [125I]AB-MECA binding to membranes of CHO cells that express the A3 receptor; settings: for Ki: [125I]AB-MECA, CHO cell membrane, Cheng-Prusoff
T3 construct: expressed in transfected cells; host or cells: CHO cells (ATCC CCL-61)
T3 sequence (P0DMS8 1-318): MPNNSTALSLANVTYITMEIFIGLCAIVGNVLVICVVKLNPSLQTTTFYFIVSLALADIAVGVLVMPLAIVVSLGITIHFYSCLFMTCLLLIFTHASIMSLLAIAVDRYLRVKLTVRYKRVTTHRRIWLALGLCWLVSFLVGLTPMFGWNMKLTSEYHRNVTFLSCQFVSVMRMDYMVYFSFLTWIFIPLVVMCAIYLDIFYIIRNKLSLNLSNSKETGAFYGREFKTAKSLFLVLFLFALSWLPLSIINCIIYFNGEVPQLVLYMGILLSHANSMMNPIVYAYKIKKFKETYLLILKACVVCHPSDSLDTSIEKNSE
Description: Chinese hamster ovary (CHO, ATCC; US Cell Strain Bank No. CCL-61) cells that express the A3 receptor were cultured at 37° C. in the presence of 5% carbon dioxide in F-12 culture medium (Gibco Company, USA) containing 10% fetal bovine serum (FBS) and penicillin/streptomycin (100 U/mL and 100 μg/mL), and used.
The inhibitor is first dissolved in dimethyl sulfoxide and diluted with buffer solution. The final concentration of DMSO should not exceed 1%. After culturing at 37° C. for 1 h, it was quickly filtered using a cell collector (TOMTEC Company, USA) and a GF/B filter (Whatman Company, USA). The test tube was rinsed three times with 3 mL of buffer solution, and the radioactivity was measured using a γ-counter.
CHO (Chinese hamster ovary) cells expressing recombinant the human A3AR were cultured in DMEM supplemented with 10% fetal bovine serum, 100 units/mL penicillin, 100 μg/mL streptomycin, 2 μmol/mL glutamine and 800 μg/mL geneticin. The CHO cells expressing rat A3ARs were cultured in DMEM and F 12 (1:1). Cells were harvested by trypsinization. After homogenization and suspension, cells were centrifuged at 500 g for 10 min, and the pellet was re-suspended in 50 mM Tris HCl buffer (pH 8.0) containing 10 mM MgCl2, 1 mM EDTA and 0.1 mg/mL CHAPS. The suspension was homogenized with an electric homogenizer for 10 sec, and was then re-centrifuged at 20,000 g for 20 min at 4° C. The resultant pellets were resuspended in buffer in the presence of 3 Units/mL adenosine deaminase, and the suspension was stored at −80° C. until the binding experiments. Striatal and forebrain tissues from Wistar rats were homogenized in ice-cold 50 mM Tris.HCl buffer, pH 7.4, using an electric homogenizer. The homogenate was centrifuged at 20,000 g for 10 min at 4° C., and the pellet was washed in fresh buffer. The final pellet was stored at −80° C. until the binding experiments.
The mixtures were incubated at 37° C. for 60 min. Binding reactions were terminated by filtration through Whatman GF/B filters under reduced pressure using a MT-24 cell harvester (Brandell, Gaithersburgh, Md., USA). Filters were washed three times with 9 mL ice-cold buffer. Radioactivity was determined in a Beckman 5500γ-counter.

rA2a adenosine receptor = molecular target: T4, rA2a adenosine receptor (Rattus norvegicus, UniProt P30543); test: Binding of [3H]CGS21680 to A2a (rat); settings: for % Displacement rA2a: 10 μM, [3H]CGS21680
T4 construct: Striatal and forebrain tissues from Wistar rats were homogenized in ice-cold 50 mM Tris.HCl buffer; from tissue; host or cells: Wistar rat brain membranes (striatum for A2a is my own knowledge)
Description: as §3, §4

ICR family mice = test: Toxicity test in mice; format: in vivo; settings: mice, 20, 10 and 1 mg/kg peritoneally, observed for 24 h
Description: (§1) Animal studies were carried out to test the toxicity of the compounds pared in the present invention.
(§2) 25±5 g ICR family mice (Joongang Study Animal) and 235±10 g specific pathogen free (SPF) Sprague Dawley rats (Joongang Study Animal) were divided into 3 groups.

Sprague Dawley rats = test: Toxicity test in rats; format: in vivo; settings: rats, 20, 10 and 1 mg/kg peritoneally, observed for 24 h
Description: as §1, §2

[1] = [3H]CGS21680, Cheng-Prusoff, read-out: Ki rA2a

hA2a adenosine receptor, sequence (P29274 whole entry): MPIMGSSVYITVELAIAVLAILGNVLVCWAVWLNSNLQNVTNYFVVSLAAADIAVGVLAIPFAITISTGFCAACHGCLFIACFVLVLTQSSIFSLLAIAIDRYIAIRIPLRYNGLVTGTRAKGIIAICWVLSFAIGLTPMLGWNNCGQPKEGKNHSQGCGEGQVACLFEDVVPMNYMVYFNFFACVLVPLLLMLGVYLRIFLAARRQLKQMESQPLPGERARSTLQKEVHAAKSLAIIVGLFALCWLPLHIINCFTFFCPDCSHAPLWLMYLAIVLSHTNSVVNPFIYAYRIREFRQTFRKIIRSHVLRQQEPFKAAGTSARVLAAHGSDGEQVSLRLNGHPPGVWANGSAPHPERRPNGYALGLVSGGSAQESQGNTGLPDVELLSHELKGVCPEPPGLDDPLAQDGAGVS
T4 sequence (P30543 whole entry): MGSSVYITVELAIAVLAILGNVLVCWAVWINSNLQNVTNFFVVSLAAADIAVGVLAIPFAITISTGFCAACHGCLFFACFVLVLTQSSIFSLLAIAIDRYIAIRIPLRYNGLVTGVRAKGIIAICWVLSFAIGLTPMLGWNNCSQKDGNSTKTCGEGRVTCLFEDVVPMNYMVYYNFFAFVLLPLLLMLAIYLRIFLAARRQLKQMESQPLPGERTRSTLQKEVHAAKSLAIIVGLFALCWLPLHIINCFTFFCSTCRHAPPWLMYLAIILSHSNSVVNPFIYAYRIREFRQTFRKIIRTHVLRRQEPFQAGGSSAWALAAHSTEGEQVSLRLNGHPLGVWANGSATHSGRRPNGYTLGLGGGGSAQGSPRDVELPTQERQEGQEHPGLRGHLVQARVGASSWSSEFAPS

| Ki (rA1 adenosine receptor) [nM] | Ki (hA3 adenosine receptor) [nM] | % Displacement rA2a (rA2a adenosine receptor) [%] | Ki (rA2a adenosine receptor; [1]) [nM] | SMILES | other results |
| --- | --- | --- | --- | --- | --- |
| 238 | 4.9 |  |  | Nc1nc(Cl)nc2c1ncn2[C@@H]1S[C@H](CO)[C@@H](O)[C@H]1O [Compound 25, (2R,3R,4S,5R)-2-(2-chloro-6-aminopurin-9-yl)-5-hydroxymethyltetrahygrothiophene-3,4-diol] | Ki (rA2a adenosine receptor): 705 nM |
| 780 | 0.8 | <10 |  | CNc1nc(Cl)nc2c1ncn2[C@@H]1S[C@H](CO)[C@@H](O)[C@H]1O [Compound 23, (2R,3R,4S,5R)-2-(2-chloro-6-methylaminopurin-9-yl)-5-hydroxymethyltetrahydrothiophene-3,4-diol] |  |
| 188 |  | <10 |  | CNC(=O)[C@]1(n2cnc3c(NCc4cccc(I)c4)nc(Cl)nc32)SC[C@H](O)[C@@H]1O [Compound 12, (2R,3S,4R)-2-[2-chloro-6-(3-iodobenzylamino)purin-9-yl)-3,4-dihydroxytetrahydrothiophene-2-carboxylic acid methyl amide] | melting point: 205 to 207 °C |
| 127 | 3.2 |  | 285 | OC[C@H]1S[C@@H](n2cnc3c(NCc4cccc(I)c4)nc(Cl)nc32)[C@H](O)[C@@H]1O [Compound 20, (2R,3R, 4S,5R)-2-[2-chloro-6-(3-iodobenzylamino)purin-9-yl]-5-hydroxymethyltetrahydrothiophene-3,4-diol] | melting point: 112 to 114 °C |
| 140 |  |  | 348 | CNC(=O)[C@H]1S[C@@H](n2cnc3c(NCc4cccc(I)c4)nc(Cl)nc32)[C@H](O)[C@@H]1O [Compound 36] | Ki (hA2a adenosine receptor): 223 nM |

| SMILES | Ki (rA1 adenosine receptor) [nM] | Ki (hA3 adenosine receptor) [nM] | % Displacement rA2a (rA2a adenosine receptor) [%] | Ki (rA2a adenosine receptor; [1]) [nM] | other results |
| --- | --- | --- | --- | --- | --- |
| CNC(=O)[C@H]1S[C@@H](n2cnc3c(N)nc(Cl)nc32)[C@H](O)[C@@H]1O [Compound 29] | 294 | 0.4 | <10 |  | Ki (hA1 adenosine receptor): 89.2 nM; Ki (hA2a adenosine receptor): 158 nM |
| CNC(=O)[C@H]1S[C@@H](n2cnc3c(NC)nc(Cl)nc32)[C@H](O)[C@@H]1O [Compound 33, (2S,3S,4R,5R)-5-(2-chloro-6-methylaminopurin-9-yl)-3,4-dihydroxytetrahydrothiophene-2-carboxylic acid methyl amide] | 198 |  |  | 6340 | Ki (hA1 adenosine receptor): 1330 nM; deaths (ICR family mice): no deaths were observed; symptoms (weight increase, feed intake) versus control group (ICR family mice): no other observable symptoms; deaths (Sprague Dawley rats): no deaths were observed; symptoms (weight increase, feed intake) versus control group (Sprague Dawley rats): no other observable symptoms; % Displacement hA2a (hA2a adenosine receptor; 10 μM, [3H]CGS21680): 20%; A3 agonist activity (hA3 adenosine receptor; in words, compared with known compounds): most strong and selective A3 agonist activity among the known compounds |

Source: patent US7199127B2, “Purine nucleosides” (United States of America, Represented by the Secretary, …, priority 2002, dated 2007)
